From BindingDB's records for doi:10.1016/j.bioorg.2015.12.005 (Birla Institute of Technology, 2016)

Target: Reverse transcriptase protein (Human immunodeficiency virus 1, UniProt Q9WJQ1)
Experiment: In-vitro HIV-1 RT Screening
Method: The reaction mixture was set with template primer complex, RT enzyme and dNTPs in a lysis buffer with or without inhibitors. The reaction mixture was incubated at 37 °C for 1 h and then transferred to streptavidine-coated microtitre plate (MTP). The biotin-labeled dNTPs that were incorporated in the template due to activity of RT, bound to streptavidine. The unbound dNTPs were washed using wash buffer and anti-DIG-POD was added to the MTP. The DIG-labeled dNTPs incorporated in the template were bound to an anti-DIG-POD antibody. The unbound anti-DIG-POD was washed again with washing buffer and the peroxide substrate (ABST) was added to the MTP. A colored reaction product was produced during the cleavage of the substrate catalyzed by a peroxide enzyme.

Compound	IC50 [µM]
O=C(Nc1ccccc1F)OC(CN1CCCc2ccccc21)c1ccc(Cl)cc1 (configuration not stated) [1-(4-chlorophenyl)-2-(3,4-dihydroquinolin-1(2H)-yl)ethyl 2-fluorophenylcarbamate (6e)]	90.3
O=C(Nc1ccc(Cl)cc1)OC(CN1CCCc2ccccc21)c1ccc(Cl)cc1 (configuration not stated) [1-(4-chlorophenyl)-2-(3,4-dihydroquinolin-1(2H)-yl)ethyl 4-chlorophenylcarbamate (6h)]	23.8
O=C(Nc1ccc(F)cc1)OC(CN1CCCc2ccccc21)c1ccc(Cl)cc1 (configuration not stated) [1-(4-chlorophenyl)-2-(3,4-dihydroquinolin-1(2H)-yl)ethyl 4-fluorophenylcarbamate (6g)]	48.6
Cc1cccc(NC(=O)OC(CN2CCCc3ccccc32)c2ccc(Cl)cc2)c1 (configuration not stated) [1-(4-chlorophenyl)-2-(3,4-dihydroquinolin-1(2H)-yl)ethyl m-tolylcarbamate (6c)]	68.3
Cc1ccccc1NC(=O)OC(CN1CCCc2ccccc21)c1ccc(Cl)cc1 (configuration not stated) [1-(4-chlorophenyl)-2-(3,4-dihydroquinolin-1(2H)-yl)ethyl o-tolylcarbamate (6b)]	8.12
Cc1ccc(NC(=O)OC(CN2CCCc3ccccc32)c2ccc(Cl)cc2)cc1 (configuration not stated) [1-(4-chlorophenyl)-2-(3,4-dihydroquinolin-1(2H)-yl)ethyl p-tolylcarbamate (6d)]	83.6
CCOC(=O)c1ccccc1NC(=O)OC(CN1CCCc2ccccc21)c1ccc(Cl)cc1 (configuration not stated) [Ethyl 2-((1-(4-chlorophenyl)-2-(3,4-dihydroquinolin-1(2H)-yl)ethoxy)carbonylamino) benzoate (6k)]	39

Next, values leading:

IC50 [µM]	Compound
72.1	O=C(Nc1cccc(F)c1)OC(CN1CCCc2ccccc21)c1ccc(Cl)cc1 (configuration not stated) [1-(4-chlorophenyl)-2-(3,4-dihydroquinolin-1(2H)-yl)ethyl 3-fluorophenylcarbamate (6f)]
14.9	O=C(Nc1cccc([N+](=O)[O-])c1)OC(CN1CCCc2ccccc21)c1ccc(Cl)cc1 (configuration not stated) [1-(4-chlorophenyl)-2-(3,4-dihydroquinolin-1(2H)-yl)ethyl 3-nitrophenylcarbamate (6i)]
5.42	O=C(Nc1ccc([N+](=O)[O-])cc1)OC(CN1CCCc2ccccc21)c1ccc(Cl)cc1 (configuration not stated) [1-(4-chlorophenyl)-2-(3,4-dihydroquinolin-1(2H)-yl)ethyl 4-nitrophenylcarbamate (6j)]
37	O=C(Nc1ccccc1)OC(CN1CCCc2ccccc21)c1ccc(Cl)cc1 (configuration not stated) [1-(4-chlorophenyl)-2-(3,4-dihydroquinolin-1(2H)-yl)ethyl phenylcarbamate (6a)]
12.3	CCOC(=O)c1ccc(NC(=O)OC(CN2CCCc3ccccc32)c2ccc(Cl)cc2)cc1 (configuration not stated) [Ethyl4-((1-(4-chlorophenyl)-2-(3,4-dihydroquinolin-1(2H)-yl)ethoxy)carbonylamino) benzoate (6l)]
